Results on one compound are retold here after patent publication US10010529B2, “Extended release pharmaceutical formulations with controlled impurity levels” (Ezra Pharma LLC, priority 2016, dated 2018).

Data set [1] in a line: Compatibility study for valsartan related compound A (Impurity A), 2 weeks 60° C. closed glass vial. In kind it is physicochemical. The method, then: Valsartan and valsartan solubilized in molten solubilizers as depicted in tables I and II respectively were subjected to compatibility studies at the following condition: • 2 weeks 60° C. closed glass vial Solubilized valsartan used for the study was prepared by melting the solubiliser/s (Kolliphor P 407, Kolliphor TPGS and combination thereof) in a beaker at water bath temperature 65° C. The drug was mixed with the molten solubiliser/s uniformly at water bath temperature 65° C. and the cooled mass was used in the studies. Levels of Impurity A were evaluated at the tabulated conditions as mentioned in Table III.

The conditions of data set [2]: in vivo; cited from earlier work.

Turning to `CCCCC(=O)N(Cc1ccc(-c2ccccc2-c2nnn[nH]2)cc1)[C@H](C(=O)O)C(C)C` [Valsartan API, (S)—N-(1-oxopentyl)-N-[[2′-(1H-tetrazol-5-yl) [1,1′-biphenyl]-4-yl]methyl]-L-valine], the “Impurity A level, 2 Weeks 60° C. Closed glass Vial” value in data set [1] (2 weeks 60° C., closed glass vial) is given as 0.05. In data set [1] (conditions of the compatibility study), the “generation of Valsartan R-isomer impurity (Impurity A), in words” value is recorded as “not generated”. Moreover, in data set [1] (initial), the “Impurity A level, Initial” value came to 0.03. The absolute bioavailability result in data set [2] was “about 25%”.
